In patent publication US20260193295A1, “CILAGICIN COMPOUNDS AND METHODS OF USE THEREOF” (priority 2022, published 2026):
In brackets after ≈: the same amount, converted by molar mass. Read-outs that look alike come from different tables or passages of the source. Positions of bridges follow the written chain, without caps; N, C: chain ends. Non-standard residues stand in square brackets, D forms with d. Residues, ends and D or L forms follow the SMILES beside them. *: point of attachment. Ileψ(thiazoline)Cys = CC[C@H](C)[C@H](N)C1=N[C@H](C(=O)*)CS1; Hexanoyl(6-Ph) = O=C(CCCCCc1ccccc1)*; X2 = O=C(c1cc2ccccc2n1Cc1ccccc1)*; dOrn = NCCC[C@@H](N)C(=O)O; X1 = CC[C@H](C)CCCCC(=O)*; X3 = Cc1ccccc1/C=C/C(=O)*; dDab = NCC[C@@H](N)C(=O)O; Dab = NCC[C@H](N)C(=O)O

Tests used:
Streptococcus agalactiae = type: cell-based
Procedure: (§1) MIC assay were conducted using the protocol recommended by the Clinical and Laboratory Standards Institute.(37) Culture conditions (temperature, medium) are detailed in Table 3. All compounds were dissolved in sterile DMSO (ATCC, USA) to give a concentration of 6.4 mg/mL. Vancomycin hydrochloride was used as positive controls. Tested compounds were serially diluted across 96-well plates using a 2-fold serial dilution in a volume of 50 μL. An overnight culture of an assay strain was diluted 5,000-fold in fresh medium. 50 μL of this dilution was added into each well, giving a final volume of 100 μL in each well. Compounds were assayed at concentrations ranging from 64 μg/mL to 0.06 μg/mL. The top and bottom rows of each plate were filled with 100 μL of media to avoid edge effects. […] For Clostridium difficile plates were statically incubated under anaerobic conditions (Vinyl anaerobic chamber, 37° C., 5% H2, 5% CO2, 90% N2). For Streptococcus pneumoniae plates were statically incubated under aerobic conditions supplemented with 5% C02 (37° C.). All MICs were performed in technical duplicate (n=2) and repeated three independent times (n=3).

Enterococcus faecium = type: cell-based
Procedure: as §1

Streptococcus pyrogens = type: cell-based
Procedure: as §1

Staphylococcus aureus = type: cell-based
Procedure: as §1

Streptococcus pneumoniae = type: cell-based
Procedure: as §1

S. aureus USA300 = assay: Resistance studies (daily serial passage at sub-MIC); type: cell-based, Staphylococcus aureus; conditions: daily serial passage at sub-MIC levels of antibiotic
Procedure: A single colony of S. aureus USA300 was inoculated in 5 mL LB broth and grown overnight at 37° C. with continuous shaking (200 rpm). The overnight culture was then diluted 1:5,000 into fresh LB. 50 μL aliquots of dilute cells were transferred into individual wells of 96-well plates containing 50 μL of serially diluted cilagicin, amphomycin (AG Scientific, USA) or bacitracin (Sigma, USA). Plates were statically incubated at 37° C. After 24 hours, the MIC was recorded. […] The MIC was determined as described above. This process was repeated daily for 25 days. For bacitracin, the LB medium was supplemented with 50 μg/mL ZnCl2. For amphomycin, the medium was supplemented with 100 μg/mL CaCl2-2H2O. Experiments were performed three independent times (n=3).

[1] = tested on: vancomycin-resistant Enterococci clinical isolates; conditions: cited from earlier work
[2] = Enterococci clinical isolate code 781
[3] = Enterococci clinical isolate code 782
[4] = Enterococci clinical isolate code 783
[5] = Enterococci clinical isolate code 784
[6] = Enterococci clinical isolate code 785
[7] = Enterococci clinical isolate code 786
[8] = Enterococci clinical isolate code 787
[9] = Enterococci clinical isolate code 788
[10] = Enterococci clinical isolate code 789
[11] = Enterococci clinical isolate code 790
[12] = Enterococci clinical isolate code 791
[13] = Enterococci clinical isolate code 792
[14] = Enterococci clinical isolate code 793
[15] = Enterococci clinical isolate code 794
[16] = Enterococci clinical isolate code 795
[17] = Enterococci clinical isolate code 796
[18] = Enterococci clinical isolate code 797
[19] = Enterococci clinical isolate code 798
[20] = Enterococci clinical isolate code 799
[21] = Enterococci clinical isolate code 800
[22] = Enterococci clinical isolate code 801
[23] = Enterococci clinical isolate code 802
[24] = Enterococci clinical isolate code 803
[25] = Enterococci clinical isolate code 804
[26] = Enterococci clinical isolate code 805
[27] = Enterococci clinical isolate code 806
[28] = Enterococci clinical isolate code 807
[29] = Enterococci clinical isolate code 808
[30] = Enterococci clinical isolate code 809
[31] = Enterococci clinical isolate code 810

## Cc1ccccc1/C=C/C(=O)N[C@H](CO)C(=O)N[C@@H]1C(=O)N[C@H](CCN)C(=O)N[C@@H](CC(=O)O)C(=O)NCC(=O)N[C@H](CC(N)=O)C(=O)N[C@H](CC(=O)O)C(=O)NCC(=O)N[C@@H](Cc2ccc(O)cc2)C(=O)N[C@@H](C(C)C)C(=O)N[C@@H](CCN)C(=O)N[C@@H](Cc2ccccc2)C(=O)O[C@@H]1C [Cilagicin L6] (X3-[dS]T[dDab]DG[dN][dD]GYV[Dab]F; ester 2-C)
Streptococcus agalactiae
  MIC: 64 mg/L (≈ 45.7 µM)
Enterococcus faecium
  MIC: >64 mg/L
Streptococcus pyrogens
  MIC: 4 mg/L (≈ 2.86 µM)
Staphylococcus aureus
  MIC: 64 mg/L (≈ 45.7 µM)
Streptococcus pneumoniae
  MIC: 32 mg/L (≈ 22.8 µM)

## amphomycin
S. aureus USA300
  development of resistance by S. aureus: rapidly developed resistance

## CC(C)[C@@H]1NC(=O)[C@H](Cc2ccc(O)cc2)NC(=O)CNC(=O)[C@@H](CC(=O)O)NC(=O)[C@@H](CC(N)=O)NC(=O)CNC(=O)[C@H](CC(=O)O)NC(=O)[C@@H](CCN)NC(=O)[C@@H](NC(=O)[C@@H](CO)NC(=O)c2cc3ccccc3n2Cc2ccccc2)[C@@H](C)OC(=O)[C@H](Cc2ccccc2)NC(=O)[C@H](CCN)NC1=O [Cilagicin L4] (X2-[dS]T[dDab]DG[dN][dD]GYV[Dab]F; ester 2-C)
Staphylococcus aureus
  MIC: 8 mg/L (≈ 5.37 µM)

## CC[C@H](C)CCCCC(=O)N[C@H](CO)C(=O)N[C@@H]1C(=O)N[C@H](CCN)C(=O)N[C@@H](CC(=O)O)C(=O)NCC(=O)N[C@H](CC(N)=O)C(=O)N[C@H](CC(=O)O)C(=O)NCC(=O)N[C@@H](Cc2ccc(O)cc2)C(=O)N[C@@H](C(C)C)C(=O)N[C@@H](CCN)C(=O)N[C@@H](Cc2ccccc2)C(=O)O[C@@H]1C [Cilagicin L5] (X1-[dS]T[dDab]DG[dN][dD]GYV[Dab]F; ester 2-C)
Streptococcus agalactiae
  MIC: 8 mg/L (≈ 5.73 µM)
Enterococcus faecium
  MIC: 64 mg/L (≈ 45.8 µM)
Streptococcus pyrogens
  MIC: 1 mg/L (≈ 0.716 µM)
Staphylococcus aureus
  MIC: 4 mg/L (≈ 2.86 µM)
Streptococcus pneumoniae
  MIC: 4 mg/L (≈ 2.86 µM)

## CC(C)[C@@H]1NC(=O)[C@H](Cc2ccc(O)cc2)NC(=O)CNC(=O)[C@@H](CC(=O)O)NC(=O)[C@@H](CC(N)=O)NC(=O)CNC(=O)[C@H](CC(=O)O)NC(=O)[C@@H](CCN)NC(=O)[C@@H](NC(=O)[C@@H](CO)NC(=O)CCCCCc2ccccc2)[C@@H](C)OC(=O)[C@H](Cc2ccccc2)NC(=O)[C@H](CCN)NC1=O [Cilagicin L3] ({Hexanoyl(6-Ph)}-[dS]T[dDab]DG[dN][dD]GYV[Dab]F; ester 2-C)
Streptococcus agalactiae
  MIC: 16 mg/L (≈ 11.2 µM)
Enterococcus faecium
  MIC: 64 mg/L (≈ 44.7 µM)
Streptococcus pyrogens
  MIC: 1 mg/L (≈ 0.699 µM)
Staphylococcus aureus
  MIC: 8 mg/L (≈ 5.59 µM)
Streptococcus pneumoniae
  MIC: 4 mg/L (≈ 2.8 µM)

## CC(=O)NC[C@H]1CN(c2ccc(N3CCOCC3)c(F)c2)C(=O)O1 [Linezolid]
[1]; [2]
  MIC: 2 mg/L (≈ 5.93 µM)
[1]; [3]
  MIC: 2 mg/L (≈ 5.93 µM)
[1]; [4]
  MIC: 2 mg/L (≈ 5.93 µM)
[1]; [5]
  MIC: 1 mg/L (≈ 2.96 µM)
[1]; [6]
  MIC: 2 mg/L (≈ 5.93 µM)
[1]; [7]
  MIC: 2 mg/L (≈ 5.93 µM)
[1]; [8]
  MIC: 2 mg/L (≈ 5.93 µM)
[1]; [9]
  MIC: 4 mg/L (≈ 11.9 µM)
[1]; [10]
  MIC: 2 mg/L (≈ 5.93 µM)
[1]; [11]
  MIC: 2 mg/L (≈ 5.93 µM)
[1]; [12]
  MIC: 2 mg/L (≈ 5.93 µM)
[1]; [13]
  MIC: 1 mg/L (≈ 2.96 µM)
[1]; [14]
  MIC: 2 mg/L (≈ 5.93 µM)
[1]; [15]
  MIC: 2 mg/L (≈ 5.93 µM)
[1]; [16]
  MIC: 1 mg/L (≈ 2.96 µM)
[1]; [17]
  MIC: 2 mg/L (≈ 5.93 µM)
[1]; [18]
  MIC: 2 mg/L (≈ 5.93 µM)
[1]; [19]
  MIC: 4 mg/L (≈ 11.9 µM)
[1]; [20]
  MIC: 2 mg/L (≈ 5.93 µM)
[1]; [21]
  MIC: 2 mg/L (≈ 5.93 µM)
[1]; [22]
  MIC: 2 mg/L (≈ 5.93 µM)
[1]; [23]
  MIC: 2 mg/L (≈ 5.93 µM)
[1]; [24]
  MIC: 4 mg/L (≈ 11.9 µM)
[1]; [25]
  MIC: 2 mg/L (≈ 5.93 µM)
[1]; [26]
  MIC: 2 mg/L (≈ 5.93 µM)
[1]; [27]
  MIC: 2 mg/L (≈ 5.93 µM)
[1]; [28]
  MIC: 2 mg/L (≈ 5.93 µM)
[1]; [29]
  MIC: 4 mg/L (≈ 11.9 µM)
[1]; [30]
  MIC: 2 mg/L (≈ 5.93 µM)
[1]; [31]
  MIC: 2 mg/L (≈ 5.93 µM)

## Gentamicin
[1]; [2]
  MIC: ≤500 mg/L
[1]; [3]
  MIC: >500 mg/L
[1]; [4]
  MIC: >500 mg/L
[1]; [5]
  MIC: ≤500 mg/L
[1]; [6]
  MIC: >500 mg/L
[1]; [7]
  MIC: >500 mg/L
[1]; [8]
  MIC: ≤500 mg/L
[1]; [9]
  MIC: ≤500 mg/L
[1]; [10]
  MIC: >500 mg/L
[1]; [11]
  MIC: ≤500 mg/L
[1]; [12]
  MIC: ≤500 mg/L
[1]; [13]
  MIC: >500 mg/L
[1]; [14]
  MIC: ≤500 mg/L
[1]; [15]
  MIC: >500 mg/L
[1]; [16]
  MIC: >500 mg/L
[1]; [17]
  MIC: ≤500 mg/L
[1]; [18]
  MIC: ≤500 mg/L
[1]; [19]
  MIC: ≤500 mg/L
[1]; [20]
  MIC: >500 mg/L
[1]; [21]
  MIC: >500 mg/L
[1]; [22]
  MIC: >500 mg/L
[1]; [23]
  MIC: >500 mg/L
[1]; [24]
  MIC: >500 mg/L
[1]; [25]
  MIC: >500 mg/L
[1]; [26]
  MIC: ≤500 mg/L
[1]; [27]
  MIC: ≤500 mg/L
[1]; [28]
  MIC: ≤500 mg/L
[1]; [29]
  MIC: ≤500 mg/L
[1]; [30]
  MIC: ≤500 mg/L
[1]; [31]
  MIC: ≤500 mg/L

## CC[C@H](C)[C@H](N)C1=N[C@H](C(=O)N[C@@H](CC(C)C)C(=O)N[C@H](CCC(=O)O)C(=O)N[C@H](C(=O)N[C@H]2CCCCNC(=O)[C@H](CC(N)=O)NC(=O)[C@@H](CC(=O)O)NC(=O)[C@H](Cc3cnc[nH]3)NC(=O)[C@@H](Cc3ccccc3)NC(=O)[C@H]([C@@H](C)CC)NC(=O)[C@@H](CCCN)NC2=O)[C@@H](C)CC)CS1 [bacitracin] ({Ileψ(thiazoline)Cys}-L[dE]IK[dOrn]I[dF]H[dD]N; lactam 4-C)
S. aureus USA300
  development of resistance by S. aureus: rapidly developed resistance
